These results are taken from article PMC6432920 (Journal of medicinal chemistry, 2017).

For data set [1] the following is noted: human liver microsomes; cited from earlier work. (In general: Liver microsomes are vesicles of endoplasmic reticulum, rich in cytochrome P450 enzymes.)
For data set [2] the following is noted: one dose treatment, nude mice bearing MCF-7 xenograft tumors; cited from earlier work.

Structures are written as SMILES. Where two headings read alike, the source gives them in different places.

In turn, `COc1ccc2c(c1)NC(=O)CN2c1nc(C)nc2ccccc12` [Compound 2, 7-Methoxy-4-(2-methylquinazolin-4-yl)-3,4-dihydroquinoxalin-2(1H)-one] displayed a body weight end (0.25 mg/kg iv Q5D × 4) of 25.96 ± 1.54 g, a body weight end (0.5 mg/kg iv Q5D × 4) of 23.85 ± 1.57 g and a body weight end (1.0 mg/kg iv Q5D × 4) of 20.50 ± 3.27 g. The body weight start is reported as 22.44 ± 1.27 g (0.25 mg/kg iv Q5D × 4), 22.28 ± 1.33 g (0.5 mg/kg iv Q5D × 4) and 22.13 ± 1.24 g (1.0 mg/kg iv Q5D × 4). Also, the signs of toxicity entry (mice, 1.0 mg/kg) is listed as “without obvious signs of toxicity”. Also, the “metabolic stability in vitro t1/2” value in data set [1] was 55 min. Besides, the lethal dose in data set [2] is 4 mg/kg.
